Data set [1] can be described thus: Mouse serum triglyceride level measurements. The format is in vivo. As to conditions: treatment for 15 weeks; compared to the UNT group. As for the experimental part: Mouse serum triglyceride level measurements. Blood samples from the mice were obtained from mouse tails. The analysis of serum triglyceride levels was carried out at the Laboratory of Comparative Pathology of the Memorial Sloan-Kettering Cancer Center. UNT (n=4); 4-NQO (n=3); 4N+B (n=4); 4N+C (n=3), and 4N+B+C (n=4).

Data set [2] in a line: Stability of CD1530 in drinking water by HPLC. Format: physicochemical. Conditions: room temperature, final DMSO 0.8%. From the text:
FIG. 7. CD1530 is stable in the drinking water for at least 7 days at room temperature. CD1530 was first dissolved in 100% DMSO and subsequently diluted in the drinking water (the final concentration of DMSO was 0.8%). The same amounts of the freshly prepared CD1530 containing drinking water and the CD1530 containing water prepared 7 days earlier and stored at the room temperature were subjected to high-performance liquid chromatography (HPLC) analysis.
(§1) Drug treatments reduce tongue tumor development. All of the mice tolerated the 10 week 4-NQO treatment, and almost all of the mice survived the 15 week post 4-NQO treatment period (A). We determined that the CD1530 in the regular drinking water was stable for at least 7 days at room temperature by HPLC analysis (FIG. 7); thus, we decided to use drinking water as a delivery method because this method is effective and less laborious.

Data set [3] concerns mouse tongue mRNA transcriptome. The data set is described as follows: RNA-Seq analysis of the mRNA transcriptome of mouse tongues. Format: in vivo. The protocol:
RNA-Seq analysis of the mRNA transcriptome. One part of each mouse tongue (same position on each mouse tongue) was snap frozen in liquid N2 and stored at −70° C. until total RNA extraction. Total tissue RNA was extracted and subjected to Next-Generation Sequencing (RNA-Seq) at the Genomics Resources Core Facility, Weill Cornell Medical College. Bioinfomatics analyses were performed using the Tophat and Cufflink software. (supporting information).
RNA-Seq analysis of mRNA transcriptome. […] The GEO Accession number is GSE54246; embargoed until publication.

For data set [4], the system named is GO categories in mouse tongue. The data set is described as follows: Gene ontology (GO) analysis of RNA-Seq data. As to conditions: compared to the 4-NQO group. Format: in vivo. The protocol:
Gene ontology (GO) analysis. Gene ontology (GO) analysis (p-value cutoff: 0.00001), using the ConsensusPathDB online tool, was conducted on the Gene Ontology level 3 of the “Biological Process” domain that has predefined, functional sets for enrichment analysis with default parameter settings.

Data set [5] deals with 4-hydroxynonenal (4-HNE), marker of oxidative stress. Briefly: Immunohistochemistry of tongue epithelium: 4-HNE. Format: in vivo, mouse. As to conditions: compared to the 4-NQO group; antibody staining. As for the experimental part:
(§2) Immunohistochemistry. Paraffin embedded tongue sections were stained with various antibodies (supporting information).
(§3) Immunohistochemistry. Paraffin-embedded sections (from two to four mice per group) were deparaffinized and rehydrated, and antigen retrieval was performed using an antigen unmasking solution (Vector Laboratories, H-3300). After quenching endogenous peroxidase with 3% H2O2, the tissue sections were blocked with the blocking reagent (from the M.O.M. kit from Vector Laboratories for 4-HNE) or 10% goat serum (Vector Laboratories). Then, tissue sections were incubated with a 4-HNE antibody (1:700; mouse monoclonal antibody; Abcam, ab48506), a β-catenin antibody (1:400; rabbit polyclonal antibody; Abcam, ab6302), or a MMP9 antibody (1:70; rabbit polyclonal antibody; Abcam, ab38898), respectively, overnight at 4° C. The sections were then incubated with secondary antibodies (1:200, anti-mouse IgG from the M.O.M kit for 4-1-INE; ready-to-use anti-rabbit IgG from the Invitrogen SuperPicture kit for β-catenin and MMP9). As a negative control, sections were stained without incubation with primary antibodies. The signals were visualized based on a peroxidase detection mechanism with 3,3-diaminobenzidine (DAB) used as the substrate. Four to five representative areas of each mouse tongue section from two to four mice per group were photographed and analyzed.

The subject of another data set is β-catenin. Briefly: Immunohistochemistry of tongue epithelium: β-catenin. Format: in vivo, mouse. Conditions: compared to the 4-NQO group; antibody staining. The protocol:
as §2, §3

The next data set relates to IL-6. Briefly: Immunohistochemistry of tongue epithelium: IL-6. Format: in vivo, mouse. Conditions: compared to the 4-NQO group; antibody staining. An excerpt:
(§4) The tongues were fixed, embedded in paraffin, and sectioned. Then the tissue sections were stained with various antibodies (magnification, 200×). Four to five representative areas of each tongue section from two to four mice/group were photographed and analyzed (FIGS. 12A and 12B). Interleukin-6 (IL-6) is a multifunctional cytokine that is involved in the regulation of immune responses and cellular functions. IL-6 levels are enhanced in human oral squamous cell carcinoma and IL-6 is considered a bad prognostic factor in this cancer (Expert Opin Ther Targets. 2013 January; 17(1):53-9). IL-6 protein was detected primarily in the basal layer of tongue epithelium in the UNT samples (FIG. 12A, arrows), but in the 4-NQO treated samples we observed both an increase in the protein level and an expansion of IL-6 signal to the suprabasal layers of the tongue epithelium (FIG. 12A).

A further data set deals with MCT4. Briefly: Immunohistochemistry of tongue epithelium: MCT4. Conditions: compared to the 4-NQO group; antibody staining. The format is in vivo, mouse.
Source text: as §4

Data set [6] can be described thus: Consumption of drug containing drinking water and diet. Conditions: 4-NQO treated mice, 15 week post 4-NQO treatment. Format: in vivo, mouse.
Source text: as §1

In data set [7] the test system is tongue lesions (4-NQO induced oral cavity carcinogenesis). Briefly: 4-NQO mouse oral cavity carcinogenesis model: gross tongue lesion number and severity.
Where [8] appears, read: compared to the 4-NQO group, p<0.05.

Take `O=C(O)c1ccc(-c2ccc3cc(O)c(C45CC6CC(CC(C6)C4)C5)cc3c2)cc1` [CD1530]: the serum triglyceride levels entry in data set [1] was “did not change serum triglyceride levels significantly”. Besides, in data set [2], the “stable in the drinking water” value was “at least 7 days”. The “transcript levels of DNA replication genes (MCM 2-7 and 10, DNA2, LIG1, ORC1, POLA1, PRIM2)” value in [3] (compared to the 4-NQO group) is “significantly lower transcript levels of the majority of these genes”. For the same compound, in data set [3] (setting [8]), the “number of genes with decreased transcript levels” value came to 531, the “number of genes with increased transcript levels” value was 987 and the “number of genes with significantly different transcript levels” value worked out at 1518. Besides, the “Cyp26a1 mRNA level” value in data set [3] (greater than in other groups, RARγ target gene) was “about 20 fold”. Moreover, in data set [4], the “GO categories related to cell cycle, DNA replication, and mitosis” value is listed as “most under-expressed”; the “over-represented GO categories” value is given as “over-representation of many GO categories, with some of them involved in lipid metabolism”. Also, the “4-HNE levels in tongue samples” value in [5] is reported as “lower”. The “β-catenin protein levels in the tongue epithelium” value in the data set with β-catenin is “lower β-catenin protein levels”. Besides, the “IL-6 protein levels in the tongue epithelium” value with IL-6 is “lower IL-6 protein levels”. In the data set on MCT4, the “MCT4 protein levels in the tongue epithelium” value is “lower MCT4 protein levels”. Also, the “consumption of drinking water containing drug vs regular drinking water” value in data set [6] is listed as “comparable”. The “number of tongue lesions (gross tongue lesion multiplicity)” value in data set [7] (C57BL/6 female mice, 4-NQO 10 weeks, then drug in 15 week post 4-NQO period, bexarotene 300 mg/kg diet, CD1530 […]100 ml drinking water, 4-NQO group 5.9±3.2) amounted to 3.9±1.7. The “average severity of tongue lesions (grade 0-4)” value in [7] (same model, 4-NQO group 2.8±0.8) is on record as 1.6±0.8.

The values above are taken from patent US10265378B2, “Combination therapy for head and neck cancer” (Cornell University, priority 2014, dated 2019).
